Active and inactive are the calls of the source.
Key:
Cytochrome P450 2C9 = Cytochrome P450 2C9 (Homo sapiens, UniProt P11712)
Cytochrome P450 3A4 = Cytochrome P450 3A4 (Homo sapiens, UniProt P08684);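 further: CYP3A4 tested as one member of a cytochrome P450 panel screen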
Cytochrome P450 2D6 = Cytochrome P450 2D6 (Homo sapiens, UniProt P10635);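 further: CYP2D6 member of a cytochrome P450 panel assay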
[1] = molecular target: T1, Mannose-6-phosphate isomerase (Homo sapiens, UniProt P34949); experiment: human PMI inhibitors, high substrate, primary screen, biochemical, fluorescence intensity, high mannose 6-phosphate (AID 1220)
T1 sequence (P34949 whole entry): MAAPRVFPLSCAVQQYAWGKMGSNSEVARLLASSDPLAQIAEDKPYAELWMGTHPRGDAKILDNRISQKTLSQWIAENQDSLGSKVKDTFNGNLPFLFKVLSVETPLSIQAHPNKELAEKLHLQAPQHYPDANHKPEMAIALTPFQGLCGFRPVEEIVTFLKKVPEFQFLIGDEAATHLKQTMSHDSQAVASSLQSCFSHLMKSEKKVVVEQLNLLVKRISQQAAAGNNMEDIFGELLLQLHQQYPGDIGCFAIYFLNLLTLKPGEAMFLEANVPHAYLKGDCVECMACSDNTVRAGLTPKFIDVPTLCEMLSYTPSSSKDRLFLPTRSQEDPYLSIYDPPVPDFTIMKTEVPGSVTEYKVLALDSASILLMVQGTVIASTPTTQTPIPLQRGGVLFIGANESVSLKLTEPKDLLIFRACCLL

Cytochrome P450 2C19 = Cytochrome P450 2C19 (Homo sapiens, UniProt P33261); experiment: Cytochrome panel assay with activity outcomes. Panel member name: p450-cyp2c19 Compounds with AC50 equal or less than 10 uM are considered active; format: functional; details: read-out: AC50
[2] = molecular target: DNA dC->dU-editing enzyme APOBEC-3G (Homo sapiens, UniProt Q9HC16); format: functional;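 further: Dose-response counterscreen measuring inhibition of APOBEC3G DNA deaminase activity, run while confirming APOBEC3A inhibitors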
[3] = molecular target: DNA dC->dU-editing enzyme APOBEC-3A (Homo sapiens, UniProt P31941); experiment: Dose Response confirmation of small molecule APOBEC3A DNA Deaminase Inhibitors via a fluorescence-based single-stranded DNA deaminase assay. [Related pubchem assays (depositor defined):AID493011, AID493024]; format: functional
[4] = molecular target: FAD-linked sulfhydryl oxidase ALR (Homo sapiens, UniProt P55789); experiment: inhibitors of human ALR sulfhydryl oxidase, dose response, biochemical, H2O2 detection, luminescence, cherry-pick (AID 493248)
[5] = inhibitors of intracellular T. cruzi replication, confirmation, NIH3T3 host cells, beta-gal luminescence (AID 2044); format: functional, cell-based;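 further: intracellular parasites grown in NIH/3T3 mouse fibroblasts as host cells; luminescent beta-galactosidase reporter signal from transgenic T. cruzi replicating inside host cells; inhibitors lower the luminescence signal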
[6] = cytotoxicity toward NIH3T3 fibroblasts, dose response, counter-screen, cell-based, ATP luminescence, mouse fibroblasts (AID 2010); format: functional;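 further: cells exposed to compound for about 90 hours before reading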
[7] = molecular target: T2, Histone-lysine N-methyltransferase NSD2 (Homo sapiens, UniProt O96028); format: biochemical
T2 sequence (O96028 whole entry): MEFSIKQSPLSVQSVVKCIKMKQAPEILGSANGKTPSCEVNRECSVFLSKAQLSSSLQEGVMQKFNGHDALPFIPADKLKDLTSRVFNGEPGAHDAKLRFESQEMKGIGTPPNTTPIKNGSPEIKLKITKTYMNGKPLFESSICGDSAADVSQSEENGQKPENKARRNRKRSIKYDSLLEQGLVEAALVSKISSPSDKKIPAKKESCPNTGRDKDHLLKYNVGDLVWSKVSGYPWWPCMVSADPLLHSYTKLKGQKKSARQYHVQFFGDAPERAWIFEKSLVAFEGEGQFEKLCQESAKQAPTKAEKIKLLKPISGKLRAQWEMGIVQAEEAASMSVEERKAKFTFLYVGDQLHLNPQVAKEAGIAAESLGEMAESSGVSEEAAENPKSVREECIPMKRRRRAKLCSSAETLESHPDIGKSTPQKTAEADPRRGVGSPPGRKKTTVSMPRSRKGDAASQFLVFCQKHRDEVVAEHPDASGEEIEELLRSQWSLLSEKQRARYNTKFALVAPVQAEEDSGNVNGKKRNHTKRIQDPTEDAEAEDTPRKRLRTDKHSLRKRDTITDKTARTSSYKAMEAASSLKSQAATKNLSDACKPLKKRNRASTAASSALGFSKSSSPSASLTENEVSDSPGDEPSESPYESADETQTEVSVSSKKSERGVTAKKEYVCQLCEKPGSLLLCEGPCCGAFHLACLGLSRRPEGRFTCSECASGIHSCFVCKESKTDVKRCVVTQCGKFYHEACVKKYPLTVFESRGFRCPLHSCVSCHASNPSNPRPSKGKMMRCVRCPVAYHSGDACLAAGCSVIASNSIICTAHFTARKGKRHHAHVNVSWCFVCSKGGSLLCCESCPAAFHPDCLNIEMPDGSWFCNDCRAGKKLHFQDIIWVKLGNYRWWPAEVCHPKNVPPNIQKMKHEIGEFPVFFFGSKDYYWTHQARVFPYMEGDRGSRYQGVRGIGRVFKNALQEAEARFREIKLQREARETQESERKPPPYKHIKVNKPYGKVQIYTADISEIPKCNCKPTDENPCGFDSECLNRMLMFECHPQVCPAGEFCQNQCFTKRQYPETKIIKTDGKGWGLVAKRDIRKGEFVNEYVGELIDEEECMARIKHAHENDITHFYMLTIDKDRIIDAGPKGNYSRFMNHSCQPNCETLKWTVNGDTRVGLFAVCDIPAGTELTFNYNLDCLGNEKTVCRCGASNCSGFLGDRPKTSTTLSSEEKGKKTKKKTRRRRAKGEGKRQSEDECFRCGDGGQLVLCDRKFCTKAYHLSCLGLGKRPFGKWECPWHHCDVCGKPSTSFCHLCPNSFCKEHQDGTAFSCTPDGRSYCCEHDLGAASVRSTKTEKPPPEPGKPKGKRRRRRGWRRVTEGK

[8] = molecular target: T3, Tyrosyl-DNA phosphodiesterase 2 (Homo sapiens, UniProt O95551); experiment: human TDP2 enzyme inhibitors, dose response, biochemical, epi absorbance, IC50 (AID 743297)
T3 sequence (O95551 whole entry): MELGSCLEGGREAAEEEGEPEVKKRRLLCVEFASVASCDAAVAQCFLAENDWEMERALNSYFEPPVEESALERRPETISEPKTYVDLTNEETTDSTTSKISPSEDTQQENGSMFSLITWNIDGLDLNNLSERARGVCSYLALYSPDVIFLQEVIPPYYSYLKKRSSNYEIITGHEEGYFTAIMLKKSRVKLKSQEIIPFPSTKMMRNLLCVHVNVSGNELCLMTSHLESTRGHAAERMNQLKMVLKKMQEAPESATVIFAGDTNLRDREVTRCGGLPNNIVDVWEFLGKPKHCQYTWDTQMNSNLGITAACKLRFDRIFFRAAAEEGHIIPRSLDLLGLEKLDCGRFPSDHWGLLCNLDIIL

[9] = molecular target: T4, Polyadenylate-binding protein 1 (Homo sapiens, UniProt P11940); experiment: PABP1 MLLE–PAM2 binding inhibitor potency, dose response, biochemical, fluorescence polarization, FITC-PAM2 peptide (AID 602259); format: functional; details: read-out: IC50_Mean
[10] = molecular target: T4, Polyadenylate-binding protein 1; experiment: PABP1 MLLE–PAM2 interaction inhibitors, dose response, miRNA deadenylation inhibitor project, biochemical, fluorescence polarization, Cy5-PAM2 peptide, secondary (AID 602260); format: functional; details: read-out: IC50_Mean
Paired box protein Pax-8 = Paired box protein Pax-8 (Homo sapiens, UniProt Q06710); experiment: inhibitors of PAX8-driven TPO luciferase reporter, dose response, RMG-I cells, cherry-pick (AID 687027); format: functional, cell-based;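 further: luciferase reporter driven by Pax8 target thyroperoxidase promoter measured by SteadyGlo luminescence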
[11] = cytotoxicity in OVCAR8 ovarian cancer cells, dose response, PAX8 project, cell-based, plate reader, dry powder samples (AID 743197); format: functional; details: OVCAR-8
Protein RecA = molecular target: T5, Protein RecA (Mycobacterium tuberculosis, UniProt P9WHJ3); experiment: Fluorescence Cell-Free Homogeneous Dose Retest to Identify Inhibitors of RecA-Intein Splicing Activity. [Related pubchem assays (depositor defined):AID2097, AID2223, AID489010, AID492950]; format: functional
T5 sequence (P9WHJ3 whole entry): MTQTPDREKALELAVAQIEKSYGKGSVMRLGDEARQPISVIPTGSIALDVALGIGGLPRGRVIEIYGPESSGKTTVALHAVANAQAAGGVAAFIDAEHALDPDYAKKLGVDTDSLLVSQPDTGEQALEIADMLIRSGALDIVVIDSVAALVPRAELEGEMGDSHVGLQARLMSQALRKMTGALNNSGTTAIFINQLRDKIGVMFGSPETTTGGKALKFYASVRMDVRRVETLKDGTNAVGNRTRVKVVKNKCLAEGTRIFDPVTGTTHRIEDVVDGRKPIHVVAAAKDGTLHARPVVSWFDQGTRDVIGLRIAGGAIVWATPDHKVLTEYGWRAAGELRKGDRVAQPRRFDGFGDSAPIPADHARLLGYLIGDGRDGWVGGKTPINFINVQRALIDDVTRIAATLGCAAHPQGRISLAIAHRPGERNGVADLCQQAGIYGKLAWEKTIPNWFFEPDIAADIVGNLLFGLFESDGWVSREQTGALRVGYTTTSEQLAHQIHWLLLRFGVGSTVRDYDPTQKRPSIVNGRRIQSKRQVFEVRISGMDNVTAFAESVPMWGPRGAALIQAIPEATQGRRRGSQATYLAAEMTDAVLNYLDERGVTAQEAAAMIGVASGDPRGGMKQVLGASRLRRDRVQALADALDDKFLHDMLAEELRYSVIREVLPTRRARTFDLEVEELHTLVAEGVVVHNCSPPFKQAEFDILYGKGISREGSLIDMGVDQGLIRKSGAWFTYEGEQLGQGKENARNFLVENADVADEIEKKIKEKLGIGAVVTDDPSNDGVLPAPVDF

[12] = molecular target: T6, Replicative DNA helicase DnaB (Mycobacterium tuberculosis, UniProt P9WMR3); experiment: DnaB intein splicing inhibitors, dose response, biochemical, cell-free fluorescence (AID 449749); format: functional
T6 sequence (P9WMR3 whole entry): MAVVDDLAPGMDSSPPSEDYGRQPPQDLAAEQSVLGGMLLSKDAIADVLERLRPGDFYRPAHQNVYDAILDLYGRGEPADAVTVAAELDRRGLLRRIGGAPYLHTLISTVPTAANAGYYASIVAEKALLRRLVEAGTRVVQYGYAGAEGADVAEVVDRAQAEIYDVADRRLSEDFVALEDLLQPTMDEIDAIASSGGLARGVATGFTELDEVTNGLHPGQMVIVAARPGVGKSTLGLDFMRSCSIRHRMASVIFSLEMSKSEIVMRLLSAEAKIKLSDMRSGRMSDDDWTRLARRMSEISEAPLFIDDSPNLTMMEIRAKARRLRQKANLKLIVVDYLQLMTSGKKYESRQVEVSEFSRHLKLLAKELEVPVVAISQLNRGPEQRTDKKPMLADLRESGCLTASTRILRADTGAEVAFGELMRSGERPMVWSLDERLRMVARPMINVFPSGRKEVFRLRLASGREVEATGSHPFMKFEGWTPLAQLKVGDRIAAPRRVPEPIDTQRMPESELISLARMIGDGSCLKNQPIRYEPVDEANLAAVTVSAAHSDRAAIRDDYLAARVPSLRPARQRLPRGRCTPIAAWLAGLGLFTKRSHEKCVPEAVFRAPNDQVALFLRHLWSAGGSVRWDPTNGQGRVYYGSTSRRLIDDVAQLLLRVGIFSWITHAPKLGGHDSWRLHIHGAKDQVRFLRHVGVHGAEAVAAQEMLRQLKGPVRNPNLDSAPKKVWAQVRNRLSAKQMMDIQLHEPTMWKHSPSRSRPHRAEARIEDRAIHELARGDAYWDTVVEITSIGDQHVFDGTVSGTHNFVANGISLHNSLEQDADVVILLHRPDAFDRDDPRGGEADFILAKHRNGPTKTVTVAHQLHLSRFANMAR

Sequence of DNA dC->dU-editing enzyme APOBEC-3A (P31941 whole entry): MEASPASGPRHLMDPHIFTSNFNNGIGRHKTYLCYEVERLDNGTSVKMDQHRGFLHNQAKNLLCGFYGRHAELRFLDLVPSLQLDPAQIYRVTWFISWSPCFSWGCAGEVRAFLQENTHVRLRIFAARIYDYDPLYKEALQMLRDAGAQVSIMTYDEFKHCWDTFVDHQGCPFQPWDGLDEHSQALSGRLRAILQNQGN
Sequence of DNA dC->dU-editing enzyme APOBEC-3G (Q9HC16 whole entry): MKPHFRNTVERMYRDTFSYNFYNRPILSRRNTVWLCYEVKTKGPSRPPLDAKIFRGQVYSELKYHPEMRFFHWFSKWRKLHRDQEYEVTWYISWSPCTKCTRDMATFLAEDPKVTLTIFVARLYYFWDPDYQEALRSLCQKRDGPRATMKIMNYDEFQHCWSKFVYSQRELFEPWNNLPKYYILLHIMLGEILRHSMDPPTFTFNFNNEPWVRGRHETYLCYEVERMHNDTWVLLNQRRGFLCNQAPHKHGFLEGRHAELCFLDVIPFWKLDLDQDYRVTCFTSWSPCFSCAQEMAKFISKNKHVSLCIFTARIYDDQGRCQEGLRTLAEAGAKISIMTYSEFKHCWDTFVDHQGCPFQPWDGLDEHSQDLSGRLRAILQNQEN
T4 sequence (P11940 whole entry): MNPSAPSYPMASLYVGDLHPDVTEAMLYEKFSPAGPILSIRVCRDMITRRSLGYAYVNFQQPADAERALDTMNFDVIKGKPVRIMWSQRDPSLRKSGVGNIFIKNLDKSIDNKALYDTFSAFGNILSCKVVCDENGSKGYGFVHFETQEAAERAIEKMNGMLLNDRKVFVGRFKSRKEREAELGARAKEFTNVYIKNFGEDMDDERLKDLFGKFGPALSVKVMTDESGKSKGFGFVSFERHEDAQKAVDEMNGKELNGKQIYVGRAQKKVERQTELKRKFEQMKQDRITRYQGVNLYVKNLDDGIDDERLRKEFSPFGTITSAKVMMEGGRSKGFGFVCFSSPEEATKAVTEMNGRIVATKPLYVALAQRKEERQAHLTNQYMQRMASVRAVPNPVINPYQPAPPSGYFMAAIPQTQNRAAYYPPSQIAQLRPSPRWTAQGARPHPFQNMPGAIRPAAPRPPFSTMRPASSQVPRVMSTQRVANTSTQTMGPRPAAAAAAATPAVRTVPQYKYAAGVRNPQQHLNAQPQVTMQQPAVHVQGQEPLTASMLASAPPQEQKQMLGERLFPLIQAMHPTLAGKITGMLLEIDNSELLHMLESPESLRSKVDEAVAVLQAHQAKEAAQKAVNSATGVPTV
Sequence of Cytochrome P450 2C9 (P11712 whole entry): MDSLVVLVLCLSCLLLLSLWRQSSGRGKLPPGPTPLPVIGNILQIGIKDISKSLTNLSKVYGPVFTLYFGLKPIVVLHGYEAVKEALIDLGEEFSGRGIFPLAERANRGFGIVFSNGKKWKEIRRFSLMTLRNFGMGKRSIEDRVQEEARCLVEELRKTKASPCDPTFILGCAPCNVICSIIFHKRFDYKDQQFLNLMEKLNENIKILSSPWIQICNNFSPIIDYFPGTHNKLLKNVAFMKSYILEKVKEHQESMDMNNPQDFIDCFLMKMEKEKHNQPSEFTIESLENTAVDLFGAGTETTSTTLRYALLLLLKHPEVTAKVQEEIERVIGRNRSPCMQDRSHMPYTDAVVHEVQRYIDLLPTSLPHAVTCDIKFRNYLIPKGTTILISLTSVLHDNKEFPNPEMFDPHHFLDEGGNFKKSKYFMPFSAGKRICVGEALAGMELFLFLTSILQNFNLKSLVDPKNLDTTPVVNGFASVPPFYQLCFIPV
Sequence of Cytochrome P450 3A4 (P08684 whole entry): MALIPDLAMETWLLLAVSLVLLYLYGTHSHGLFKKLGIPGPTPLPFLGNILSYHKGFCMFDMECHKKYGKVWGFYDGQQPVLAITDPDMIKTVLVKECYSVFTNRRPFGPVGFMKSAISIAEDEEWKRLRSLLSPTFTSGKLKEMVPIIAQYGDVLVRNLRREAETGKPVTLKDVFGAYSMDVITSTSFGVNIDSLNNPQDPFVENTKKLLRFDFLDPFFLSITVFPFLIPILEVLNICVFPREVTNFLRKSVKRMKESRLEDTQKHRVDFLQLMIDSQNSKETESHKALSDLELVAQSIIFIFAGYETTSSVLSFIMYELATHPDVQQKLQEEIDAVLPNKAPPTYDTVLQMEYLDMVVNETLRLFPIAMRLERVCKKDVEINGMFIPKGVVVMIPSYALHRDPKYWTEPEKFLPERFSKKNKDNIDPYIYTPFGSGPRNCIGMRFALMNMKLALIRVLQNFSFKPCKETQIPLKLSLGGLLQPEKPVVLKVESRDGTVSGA
Sequence of Cytochrome P450 2D6 (P10635 whole entry): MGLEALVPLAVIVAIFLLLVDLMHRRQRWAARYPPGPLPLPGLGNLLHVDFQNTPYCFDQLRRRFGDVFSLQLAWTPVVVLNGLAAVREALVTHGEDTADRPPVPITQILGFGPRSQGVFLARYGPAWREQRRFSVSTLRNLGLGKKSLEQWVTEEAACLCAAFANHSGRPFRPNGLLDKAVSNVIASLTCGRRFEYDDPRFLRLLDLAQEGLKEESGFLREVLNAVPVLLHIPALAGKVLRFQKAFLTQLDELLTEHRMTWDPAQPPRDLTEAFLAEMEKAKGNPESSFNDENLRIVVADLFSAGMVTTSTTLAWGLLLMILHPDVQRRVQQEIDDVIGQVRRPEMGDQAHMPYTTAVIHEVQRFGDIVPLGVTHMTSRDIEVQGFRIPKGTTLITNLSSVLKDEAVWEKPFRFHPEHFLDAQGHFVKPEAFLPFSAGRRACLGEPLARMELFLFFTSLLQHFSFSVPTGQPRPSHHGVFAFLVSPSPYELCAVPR
Sequence of Paired box protein Pax-8 (Q06710 whole entry): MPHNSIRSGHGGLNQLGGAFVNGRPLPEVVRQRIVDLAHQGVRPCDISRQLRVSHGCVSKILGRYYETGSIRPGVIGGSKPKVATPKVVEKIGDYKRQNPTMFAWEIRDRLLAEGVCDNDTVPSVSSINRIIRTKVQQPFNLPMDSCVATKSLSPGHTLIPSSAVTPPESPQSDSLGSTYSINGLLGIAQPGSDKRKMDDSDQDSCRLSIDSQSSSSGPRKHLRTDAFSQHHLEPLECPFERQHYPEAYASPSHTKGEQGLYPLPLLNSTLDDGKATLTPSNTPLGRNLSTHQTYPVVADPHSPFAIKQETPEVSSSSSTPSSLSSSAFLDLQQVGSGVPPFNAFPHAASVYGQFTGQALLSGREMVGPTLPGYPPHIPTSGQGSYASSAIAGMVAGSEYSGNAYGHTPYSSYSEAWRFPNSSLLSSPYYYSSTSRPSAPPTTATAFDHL
Sequence of FAD-linked sulfhydryl oxidase ALR (P55789 whole entry): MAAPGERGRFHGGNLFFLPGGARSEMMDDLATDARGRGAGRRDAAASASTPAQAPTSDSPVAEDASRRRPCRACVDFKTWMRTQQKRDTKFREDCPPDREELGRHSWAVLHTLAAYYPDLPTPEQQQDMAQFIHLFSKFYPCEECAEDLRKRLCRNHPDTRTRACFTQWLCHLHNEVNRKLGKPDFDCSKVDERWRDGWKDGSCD
Sequence of Cytochrome P450 2C19 (P33261 whole entry): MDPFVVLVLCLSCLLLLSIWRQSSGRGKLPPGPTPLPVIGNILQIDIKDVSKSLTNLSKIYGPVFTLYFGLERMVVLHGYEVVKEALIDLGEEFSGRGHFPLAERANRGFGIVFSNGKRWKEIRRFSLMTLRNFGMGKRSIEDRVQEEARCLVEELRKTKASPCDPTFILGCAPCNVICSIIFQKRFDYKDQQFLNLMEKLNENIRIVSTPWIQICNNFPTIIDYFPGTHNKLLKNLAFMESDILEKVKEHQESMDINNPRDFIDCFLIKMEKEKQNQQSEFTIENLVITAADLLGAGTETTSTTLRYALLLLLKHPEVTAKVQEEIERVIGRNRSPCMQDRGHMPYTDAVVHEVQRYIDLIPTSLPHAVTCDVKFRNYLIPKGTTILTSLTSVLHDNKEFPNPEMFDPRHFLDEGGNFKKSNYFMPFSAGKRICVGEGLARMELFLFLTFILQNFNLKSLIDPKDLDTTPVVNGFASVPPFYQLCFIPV

Compound: O=[N+]([O-])c1cc2c(cc1/C=N/c1ccccc1)OCO2
- AC50 (Cytochrome P450 2C9): 10 µM (inconclusive)
- AC50 (Cytochrome P450 3A4): 20 µM (inconclusive)
- AC50 (Cytochrome P450 2D6): 25.1 µM (inconclusive)
- IC50 [1]: > 50 µM (not active)

Compound: CCCC[N+]12CCC(CC1)C(C(=O)c1cccs1)C2 (stereo unspecified)
- AC50 (Cytochrome P450 2C9): 10 µM (inconclusive)
- AC50 (Cytochrome P450 2C19): 39.8 µM (inconclusive)
- IC50 [2]: 2.56 µM (active)
- IC50 [3]: 2.42 µM (active)

Compound: CC(=O)Nc1cc(-c2ccccc2)ccc1O
- AC50 [4]: 1.1 µM (active)
- IC50 [2]: 16.5 µM (active)
- IC50 [3]: 7.17 µM (active)

Compound: CN1CCC(N(C)S(=O)(=O)c2ccc(NC(=O)COc3ccc(F)cc3)cc2)CC1
- EC50 [5]: 0.835 µM (active)
- EC50 [6]: > 60 µM (not active)
- IC50 [2]: 3.53 µM (active)
- IC50 [3]: 3.71 µM (active)

Compound: C=CCN(CC=C)C(=S)Nc1ccc2nsnc2c1
- AC50 [7]: 15 µM (active)
- IC50 [8]: > 128 µM (inactive)
- IC50 [9]: > 66 µM (inactive)
- IC50 [10]: > 66 µM (inactive)

Compound: CC1=CC(=Nc2c(C)n(C)n(-c3ccccc3)c2=O)C=C(C)C1=O
- IC50 [1]: 13.2 µM (active)

Compound: C[C@@H]1CCCCO[C@H](CN(C)Cc2ccc(C(F)(F)F)cc2)[C@@H](C)CN([C@@H](C)CO)C(=O)c2cc(NS(=O)(=O)c3ccc(Cl)cc3)ccc2O1
- AC50 (Paired box protein Pax-8): 6.82 µM (active)
- AC50 [11]: 40.7 µM (active)

Compound: CCOCc1cnc(C)nc1NCC(=O)c1c(C)[nH]c2cc(C)ccc12
- IC50 [2]: 4.04 µM (active)
- IC50 [3]: 4.29 µM (active)

Compound: COCC(C)N1C(=O)Cc2c1nc(N)c1c(N)nc(N3CCN(c4ccccc4F)CC3)c(C#N)c21 (stereo unspecified)
- IC50 [1]: > 50 µM (not active)

Compound: CCOc1cc(/C=C2/C(=O)N(c3ccccc3)N=C2C)ccc1OC(=O)c1ccco1
- IC50 [8]: 119 µM (inactive)
- AC50 (Cytochrome P450 3A4): 25.1 µM (inconclusive)
- EC50 (Protein RecA): 1.64 µM (active)
- AC50 [12]: 2.68 µM (active)

Compound: CC(C)C(NC(=O)COc1ccc2ccccc2c1)C(=O)N/N=C/C=C/c1ccccc1 (stereo unspecified)
- IC50 [2]: 4.97 µM (active)
- IC50 [3]: 3.22 µM (active)

Reference: ChEMBL document CHEMBL1201862, “PubChem BioAssay data set” (2004)
